According to US8481587B2, “Substituted 2-(5-hydroxy-2-methyl-1H-indole-3-yl)acetic acids and ethers thereof and the use of same to treat viral diseases” (priority 2008, dated 2013):
pIC50: −log10 of the molar value. Values after ≈ are worked out from the molar mass of the structure shown. Where a name gives a salt, the structure may show the parent alone. Read-outs that look alike come from different tables or passages of the source.

Assays:
[1] = test system: influenza A/New Caledonia/20/99 (H1N1) viruses; assay: microbe, parasite or virus in culture; format: cell-based
[2] = test system: hepatisis C viruses (HCV) strain JFH-1; assay: Antiviral activity towards HCV in infected Huh7 cells (core-antigen ELISA); format: cell-based, HCV strain JFH-1 in human hepatoma (Huh7) cells; conditions: Hepatitis C virus, Huh-7; HCV strain JFH-1, Huh7 cells
Experimental: Determination of antiviral activity of the compounds of the general formula 1 towards hepatisis C viruses. Determination of antiviral activity of the compounds of the general formula 1 towards hepatisis C viruses (HCV) strain JFH-1 in cell culture of human hepatoma (Huh7) infected with HCV.
Cells Huh7 were embedded in 96-well plates (7.5×10^3 cells in every well in 50 μl of nutrient solution). 5×-concentrated solutions of the tested compounds in DMEM medium {DMEM) 1×; the source: Cellgro; Catalogue: 10-013-CV} were prepared just before the usage. In total, four serial fivefold dilutions with concentration ranging from 250 μM to 2 μM were prepared. In 4 hours after cell embedding serial dilutions of the compounds were added to the cells (50 mkl per one well). Each dilution of the examined compound was tested for two identical wells. The final DMSO concentration amounted up to 0.5%. Then, the cells were incubated for 3 hours at 37° C./5% CO2. After the incubation virus (300 tissue culture infective doses in 30 μl per one well) was added to the cells. […]. Then the cells were incubated for 3 hours at 37° C./5% CO2. The cells were fixed by addition acetone/methanol (1:1) mixture in amount of 250 gμl/well. In one minute the cells were washed with Phosphate Buffered Saline (PBS) three times. After that the cells were quenched by addition of 10% solution of fetal calf serum in PBS (150 μl/well) and kept for one hour at room temperature. Then the cells were incubated with mouse monoclonal antibody (100 μl/well) to cor-antigen HCV, clone C7-50 (Source: Affinity BioReagents; Catalogue: MA1-080) (working dilution—1:500 in 10% solution of fetal calf serum in PBS) for two hours at 37° C. The cells were washed 6 times with PBS/0.05% Tween 20 solution and incubated for one hour with peroxidase conjugated goat anti-mouse immunoglobulin (100 μl/well) (working dilution—1:2500 in 10% solution of fetal calf serum in PBS). The cells were washed 6 times with PBS/0.05% Tween 20 solution, then with PBS solution, and 100 μl/well of the substrate (consisting of 1 tablet of oPD, 12 ml of citrate/phosphate buffer and 5 μl of 30% H2O2) were added. The plates were kept for 30 min in darkness at room temperature. The reaction was stopped by addition of 2N […] (100 μl/well), optical density (at 490 nm) was measured with the help of multichannel spectrophotometer Victor3 V 1420 (Perkin Elmer). IC50 values for every tested compound were calculated using XLfit 4 programm.

cellular line MDCK = conditions: cited from earlier work
influenza virus = conditions: cellular line MDCK, cited from earlier work
[3] = test system: some other cellular lines; conditions: cited from earlier work
[4] = influenza A/New Caledonia/20/99 (H1N1), MDCK cells, ELISA, read-out: IC50

| Structure (SMILES) | IC50 [1, 4] | pIC50 [2] | further results |
| --- | --- | --- | --- |
| COC(=O)C(CCN(C)C)c1c(C)n(C)c2cc(C(F)(F)F)c(OC)cc12 (centres unmarked) [1p(2)•HCl, methyl 2-(1,2-dimethyl-5-methoxy-6-(trifluoromethyl)-1H-indol-3-yl)-4-dimethylaminobutyrate] |  |  | IC50 ([1]; H1N1, MDCK): 12 µg/mL |
| COC(=O)Cc1c(C)[nH]c2cc(C(F)(F)F)c(OC)cc12 [1.4(1), methyl 2-(2-methyl-5-methoxy-6-(trifluoromethyl)-1H-indol-3-yl)acetate] | > 15 µg/mL | 5.77 |  |
| COC(=O)Cc1c(C)[nH]c2cc(F)c(OC)cc12 [1.2(1), methyl 2-(2-methyl-5-methoxy-6-fluoro-1H-indol-3-yl)acetate] |  | 4.89 |  |
| COC(=O)Cc1c(C)n(C)c2cc(C(F)(F)F)c(OC)cc12 [1g(4), methyl 2-(1,2-dimethyl-5-methoxy-6-(trifluoromethyl)-1H-indol-3-yl)acetate] |  | 5.62 |  |
| Cc1c(CC(=O)O)c2cc(O)c(F)cc2n1C [1u(6), 2-(5-hydroxy-1,2-dimethyl-6-fluoro-1H-indol-3-yl)acetic acid] | > 15 µg/mL |  |  |
| CN(C)Cc1c(CC(=O)O)c2cc(O)c(-c3cccnc3)cc2n1C [1t(5), 2-(5-hydroxy-2-(dimethylamino)methyl-1-methyl-6-(pyridin-3-yl)-1H-indol-3-yl)acetic acid] | > 15 µg/mL |  |  |
| COC(=O)Cc1c(C)n(C)c2cc(F)c(OC)cc12 [1g(2), methyl 2-(1,2-dimethyl-5-methoxy-6-fluoro-1H-indol-3-yl)acetate] | 10 µg/mL (≈ 37.7 µM) | 5.20 |  |
| COC(=O)Cc1c(C)n(C)c2cc(F)c(O)cc12 [1v(1), methyl 2-(5-hydroxy-1,2-dimethyl-6-fluoro-1H-indol-3-yl)acetate] |  | 4.30 |  |
| COC(=O)Cc1c(C)[nH]c2ccc(OC)c(F)c12 [1.1(1), methyl 2-(2-methyl-5-methoxy-4-fluoro-1H-indol-3-yl)acetate] |  | 4.42 |  |
| CCOC(=O)c1c(CSc2ccccc2)n(C)c2cc(Br)c(O)c(CN(C)C)c12.Cl [Arbidol, ethyl 6-bromo-4-[(dimethylamino)methyl]-5-hydroxy-1-methyl-2-(phenylthiomethyl)-1H-indole-3-carboxylate hydrochloride] |  |  | TC50 (cellular line MDCK): 62.5 µg/mL; selectivity index (SI50) (influenza virus; for influenza virus): 2.69; IC50 (influenza virus; influenza virus): 23.2 mkg/ml; CC50 [3]: 15 to 25 µg/mL |
| COc1ccc2c(c1F)c(CC(=O)O)c(CN(C)C)n2C [1i(13), 2-(2-(dimethylamino)methyl-1-methyl-5-methoxy-4-fluoro-1H-indol-3-yl)acetic acid] | 12 µg/mL (≈ 40.8 µM) |  |  |
| COC(=O)Cc1c(C)n(C(=O)c2ccc(Cl)cc2)c2ccc(OC)c(F)c12 [1e(1), methyl 2-[2-methyl-5-methoxy-4-fluoro-1-(4-chlorobenzoyl)-1H-indol-3-yl]acetate] |  | 4.41 |  |
